biological target: human APJ receptor (Homo sapiens (Human), UniProt P35414); test: biochemical; assay type: biochemical; settings: [35S]GTPγS binding, CHO membranes expressing human APJ receptor; read-out: Activity hAPJ SPA EC50 IP
Summary of the method: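 GTPγS binding on membranes from CHO cells stably expressing FLAG-tagged human APJ, with optimized GDP, MgCl2 and NaCl; incubated 90 min at RT before imaging read-out.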

Sequence of human APJ receptor (P35414 whole entry): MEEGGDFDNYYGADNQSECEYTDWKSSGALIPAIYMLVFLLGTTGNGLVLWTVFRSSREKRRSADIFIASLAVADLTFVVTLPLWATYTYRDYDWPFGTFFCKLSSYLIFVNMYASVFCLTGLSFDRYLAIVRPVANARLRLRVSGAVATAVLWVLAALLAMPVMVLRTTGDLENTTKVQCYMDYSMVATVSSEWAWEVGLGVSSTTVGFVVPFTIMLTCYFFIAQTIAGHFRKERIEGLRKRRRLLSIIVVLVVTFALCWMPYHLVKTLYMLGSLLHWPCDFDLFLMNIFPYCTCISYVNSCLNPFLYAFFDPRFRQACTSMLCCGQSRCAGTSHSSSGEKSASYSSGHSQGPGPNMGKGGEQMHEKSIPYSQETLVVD

| SMILES | EC50 [nM] |
| --- | --- |
| COc1cccc(OC)c1-n1c(NS(=O)(=O)[C@H](C)[C@H](O)c2ncc(C)cn2)nnc1-c1nc(C)cs1 (single isomer, unassigned) [Example 317.0, (1R,2R)-N-(4-(2,6-dimethoxyphenyl)-5-(4-methylthiazol-2-yl)-4H-1,2,4-triazol-3-yl)-1-hydroxy-1-(5-methylpyrimidin-2-yl)propane-2-sulfonamide or (1S,2S)-N-(4-(2,6-dimethoxyphenyl)-5-(4-methylthiazol-2-yl)-4H-1,2,4-triazol-3-yl)-1-hydroxy-1-(5-methylpyrimidin-2-yl)propane-2-sulfonamide] | 6.6 |
| COc1cccc(OC)c1-n1c(NS(=O)(=O)[C@@H](C)[C@H](OC)c2ncc(C)cn2)nnc1-c1ccc(C)s1 [Example 332.0, (1R,2S)-N-(4-(2,6-dimethoxyphenyl)-5-(5-methyl-2-thiophenyl)-4H-1,2,4-triazol-3-yl)-1-methoxy-1-(5-methyl-2-pyrimidinyl)-2-propanesulfonamide] | 0.37 |
| COc1ccccc1-n1c(NS(=O)(=O)Cc2ccc(Cl)cc2)nnc1-c1cccs1 [Example 385.0, 1-(4-Chlorophenyl)-N-(4-(2-methoxyphenyl)-5-(thiophen-2-yl)-4H-1,2,4-triazol-3-yl)methanesulfonamide] | > 12500 |
| COc1cccc(OC)c1-n1c(NS(=O)(=O)CCc2ccc(Cl)cc2)nnc1-c1ncc(Cl)s1 [Example 144.0, 2-(4-chlorophenyl)-N-(5-(5-chlorothiazol-2-yl)-4-(2,6-dimethoxyphenyl)-4H-1,2,4-triazol-3-yl)ethanesulfonamide] | 330 |
| COc1cccc(OC)c1-n1c(NS(=O)(=O)CC[C@@H](O)C2CCCC2)nnc1-c1nc(C)cs1 (mixture of isomers) [Example 98.0, (R)-3-Cyclopentyl-N-(4-(2,6-dimethoxyphenyl)-5-(4-methylthiazol-2-yl)-4H-1,2,4-triazol-3-yl)-3-hydroxypropane-1-sulfonamide and (S)-3-cyclopentyl-N-(4-(2,6-dimethoxyphenyl)-5-(4-methylthiazol-2-yl)-4H-1,2,4-triazol-3-yl)-3-hydroxypropane-1-sulfonamide] | 5.3 |
| COc1ccc(C(=O)O)cc1-n1c(NS(=O)(=O)Cc2ccc(Cl)cc2)nnc1-c1cccs1 [Example 384.0, 3-(3-((4-Chlorophenyl)methylsulfonamido)-5-(thiophen-2-yl)-4H-1,2,4-triazol-4-yl)-4-methoxybenzoic acid] | > 12500 |
| CCc1csc(-c2nnc(NS(=O)(=O)CCc3ccc(F)cc3C#N)n2-c2c(OC)cccc2OC)n1 [Example 153.0, 2-(2-cyano-4-fluorophenyl)-N-(4-(2,6-dimethoxyphenyl)-5-(4-ethylthiazol-2-yl)-4H-1,2,4-triazol-3-yl)ethanesulfonamide] | 11 |
| COc1cnc([C@@H](C)[C@H](C)S(=O)(=O)Nc2nnc(-c3ccn(C)n3)n2-c2c(F)cccc2F)cn1 [Example 230.0, (2S,3R)-N-(4-(2,6-difluorophenyl)-5-(1-methyl-1H-pyrazol-3-yl)-4H-1,2,4-triazol-3-yl)-3-(5-methoxy-2-pyrazinyl)-2-butanesulfonamide] | 25 |
| CCn1ccc(-c2nnc(NS(=O)(=O)[C@@H](C)[C@H](O)c3ncc(C)cn3)n2-c2c(OC)cccc2OC)n1 [Example 388.0, (1R,2S)-N-(4-(2,6-Dimethoxyphenyl)-5-(1-ethyl-1H-pyrazol-3-yl)-4H-1,2,4-triazol-3-yl)-1-hydroxy-1-(5-methylpyrimidin-2-yl)propane-2-sulfonamide] | 0.37 |
| CCc1csc(-c2nnc(NS(=O)(=O)[C@H](C)Cc3ncc(F)cn3)n2-c2c(OC)cccc2OC)n1 [Example 106.0] | 21 |
| COc1ncnc(OC)c1-n1c(NS(=O)(=O)[C@@H](C)[C@H](C)c2ncc(C)cn2)nnc1-c1noc2ccccc12 [Example 88.0, (2S,3R)-N-(5-(benzo[d]isoxazol-3-yl)-4-(4,6-dimethoxypyrimidin-5-yl)-4H-1,2,4-triazol-3-yl)-3-(5-methylpyrimidin-2-yl)butane-2-sulfonamide] | 50 |
| COc1cccc(OC)c1-n1c(NS(=O)(=O)C[C@@H](O)c2ccc(F)cc2F)nnc1-c1ccn(C)n1 (racemic) [Example 116.0, (S)-2-(2,4-difluorophenyl)-N-(4-(2,6-dimethoxyphenyl)-5-(1-methyl-1H-pyrazol-3-yl)-4H-1,2,4-triazol-3-yl)-2-hydroxyethanesulfonamide and (R)-2-(2,4-difluorophenyl)-N-(4-(2,6-dimethoxyphenyl)-5-(1-methyl-1H-pyrazol-3-yl)-4H-1,2,4-triazol-3-yl)-2-hydroxyethanesulfonamide] | 2.6 |
| COc1ncnc(OC)c1-n1c(NS(=O)(=O)[C@@H](C)[C@H](C)c2ncc(F)cn2)nnc1-c1cnn2c1CCC2 [Example 480.0, (2S,3R)-N-(5-(5,6-dihydro-4H-pyrrolo[1,2-b]pyrazol-3-yl)-4-(4,6-dimethoxypyrimidin-5-yl)-4H-1,2,4-triazol-3-yl)-3-(5-fluoropyrimidin-2-yl)butane-2-sulfonamide] | 4.4 |
| COc1ccc(N2CCC2=O)cc1-n1c(NS(=O)(=O)CCc2ccc(F)cc2Br)nnc1-c1cccs1 [Example 131.0, 2-(2-Bromo-4-fluorophenyl)-N-(4-(2-methoxy-5-(2-oxoazetidin-1-yl)phenyl)-5-(thiophen-2-yl)-4H-1,2,4-triazol-3-yl)ethanesulfonamide] | 4.1 |
| COc1cccc(OC)c1-n1c(NS(=O)(=O)[C@@H](C)[C@H](C)c2ncc(C)cn2)nnc1-c1cnn2c1CCC2 [Example 487.0, (2S,3R)-N-(5-(5,6-dihydro-4H-pyrrolo[1,2-b]pyrazol-3-yl)-4-(2,6-dimethoxyphenyl)-4H-1,2,4-triazol-3-yl)-3-(5-methylpyrimidin-2-yl)butane-2-sulfonamide] | 0.62 |
| COc1cccc(OC)c1-n1c(NS(=O)(=O)[C@@H](C)[C@H](C)c2cnc(C)cn2)nnc1-c1ccn(C)n1 [Example 306.0, (2S,3R)-N-(4-(2,6-dimethoxyphenyl)-5-(1-methyl-1H-pyrazol-3-yl)-4H-1,2,4-triazol-3-yl)-3-(5-methyl-2-pyrazinyl)-2-butanesulfonamide] | 2.5 |
| COc1cccc(OC)c1-n1c(NS(=O)(=O)[C@@H](C)[C@H](OC)c2ncc(Cl)cn2)nnc1-c1n[nH]c2ccc(C)cc12 [Example 418.0, (1R,25)-1-(5-chloropyrimidin-2-yl)-N-(4-(2,6-dimethoxyphenyl)-5-(5-methyl-1H-indazol-3-yl)-4H-1,2,4-triazol-3-yl)-1-methoxypropane-2-sulfonamide] | 5.5 |
| COc1cccc(OC)c1-n1c(NS(=O)(=O)CCc2ccc(Cl)cc2)nnc1-c1cncn1C [Example 93.0, 2-(4-chlorophenyl)-N-(4-(2,6-dimethoxyphenyl)-5-(1-methyl-1H-imidazol-5-yl)-4H-1,2,4-triazol-3-yl)ethanesulfonamide] | 20 |
| COc1ncnc(OC)c1-n1c(NS(=O)(=O)[C@@H](C)[C@H](C)c2ncc(Cl)cn2)nnc1-c1cnn2ccccc12 [Example 440.0, (2S,3R)-3-(5-chloropyrimidin-2-yl)-N-(4-(4,6-dimethoxypyrimidin-5-yl)-5-(pyrazolo[1,5-a]pyridin-3-yl)-4H-1,2,4-triazol-3-yl)butane-2-sulfonamide] | 0.96 |
| CC(C)O[C@@H](c1ncc(Cl)cn1)[C@H](C)S(=O)(=O)Nc1nnc(-c2ccn(C)n2)n1C1CC1 [Example 532.0, (1S,2S)-1-(5-chloro-2-pyrimidinyl)-N-(4-cyclopropyl-5-(1-methyl-1H-pyrazol-3-yl)-4H-1,2,4-triazol-3-yl)-1-(2-propanyloxy)-2-propanesulfonamide] | 22 |
| COc1cccc(OC)c1-n1c(NS(=O)(=O)CCc2ccc(Cl)cc2)nnc1-c1ccsc1 [Example 141.0, 2-(4-chlorophenyl)-N-(4-(2,6-dimethoxyphenyl)-5-(thiophen-3-yl)-4H-1,2,4-triazol-3-yl)ethanesulfonamide] | 9.4 |
| O=S(=O)(Cc1ccc(Cl)cc1)Nc1nnc(-c2cccs2)n1-c1ccccc1OC(F)F [Example 237.0, 1-(4-chlorophenyl)-N-(4-(2-(difluoromethoxy)phenyl)-5-(2-thiophenyl)-4H-1,2,4-triazol-3-yl)methanesulfonamide] | > 12500 |
| COc1cccc(OC)c1-n1c(NS(=O)(=O)[C@@H](C)[C@H](OC)c2ncc(Cl)cn2)nnc1-c1cnn2ccccc12 [Example 423.0, (1R,2S)-1-(5-chloropyrimidin-2-yl)-N-(4-(2,6-dimethoxyphenyl)-5-(pyrazolo [1,5-a]pyridin-3-yl)-4H-1,2,4-triazol-3-yl)-1-methoxypropane-2-sulfonamide] | 0.68 |
| CCc1nc(-c2nnc(NS(=O)(=O)CCc3ccc(F)cc3C#N)n2-c2c(OC)cccc2OC)cs1 [Example 154.0, 2-(2-cyano-4-fluorophenyl)-N-(4-(2,6-dimethoxyphenyl)-5-(2-ethylthiazol-4-yl)-4H-1,2,4-triazol-3-yl)ethanesulfonamide] | 62 |
| COc1cnc([C@H](C)[C@H](C)S(=O)(=O)Nc2nnc(-c3ccn(C)n3)n2-c2c(OC)ncnc2OC)nc1 [Example 297.0] | 0.14 |
| CCc1onc(-c2nnc(NS(=O)(=O)[C@@H](C)[C@H](OC)c3ncc(Cl)cn3)n2-c2c(OC)cccc2OC)c1C [Example 519.0] | 0.32 |
| C[C@H](c1ncc(Cl)cn1)[C@H](C)S(=O)(=O)Nc1nnc(-c2ccn(C)n2)n1-c1c(F)cccc1F [Example 228.0, (2S,3R)-3-(5-chloro-2-pyrimidinyl)-N-(4-(2,6-difluorophenyl)-5-(1-methyl-1H-pyrazol-3-yl)-4H-1,2,4-triazol-3-yl)-2-butanesulfonamide] | 4 |
| CCO[C@H](c1ncc(Cl)cn1)[C@H](C)S(=O)(=O)Nc1nnc(-c2ccn(CC)n2)n1-c1c(OC)cccc1OC [Example 394.0, (1R,2S)-1-(5-chloropyrimidin-2-yl)-N-(4-(2,6-dimethoxyphenyl)-5-(1-ethyl-1H-pyrazol-3-yl)-4H-1,2,4-triazol-3-yl)-1-ethoxypropane-2-sulfonamide] | 0.54 |
| COc1cccc(OC)c1-n1c(NS(=O)(=O)[C@@H](C)[C@H](OC)c2ncc(C)cn2)nnc1-c1n[nH]c2ccc(F)cc12 [Example 437.0] | 190 |
